Assay results from patent publication US20040241818A1, “Assay” (priority 2000, published 2004).
pIC50: −log10 of the molar value. Like-named read-outs stand apart in the source and are kept apart here.

Target: T1, truncated Itk (Homo sapiens, UniProt Q08881)
T1 construct: fused on or other part: added start methionine
T1 sequence (Q08881 171-615 limits assumed): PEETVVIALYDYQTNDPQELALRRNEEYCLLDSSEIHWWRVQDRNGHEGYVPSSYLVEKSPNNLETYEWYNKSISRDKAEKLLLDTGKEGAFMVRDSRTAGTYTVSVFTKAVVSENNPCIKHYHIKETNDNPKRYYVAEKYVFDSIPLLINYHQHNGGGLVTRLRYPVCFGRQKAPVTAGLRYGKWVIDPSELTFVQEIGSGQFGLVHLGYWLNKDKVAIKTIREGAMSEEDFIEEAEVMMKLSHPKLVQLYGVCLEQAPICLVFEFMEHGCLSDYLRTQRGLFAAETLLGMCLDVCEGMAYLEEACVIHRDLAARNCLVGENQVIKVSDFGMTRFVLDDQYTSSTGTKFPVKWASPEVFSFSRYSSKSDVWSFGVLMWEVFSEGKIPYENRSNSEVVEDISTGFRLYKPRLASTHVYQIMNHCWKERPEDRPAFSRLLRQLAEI
Test: Truncated Itk kinase assay (HTRF)
Format: biochemical
Settings: UK:ITK, 0.05 mM ATP, 15 min pre-incubation; for pIC50: read-out: Average IC50; for IC50: PIC50 is -log10 IC50 in molar, read-out: Average PIC50 (converted)
Description: The 100 000 g supernatant was stored at −85° C. Stored lysates were thawed on ice, ATP and MgCl2 (0.1 mM and 10 mM) were added. Following incubation on ice the kinase was diluted in 40 mM HEPES (pH 7.4). The kinase reaction mixture contained 40 mM HEPES (pH 7.4). 10 mM MgCl2, 0.05 mM ATP, 0.0005 mM peptide (Biotin-[…]). The reaction was stopped by the addition of EDTA (25 mM). […] An increase in the level of fluorescence indicates an increase in kinase activity.
Compound Testing in Kinase Assay
Substrates (ATP, src-peptide) added
Reaction stopped with EDTA
HTRF reagents (APC, Eu labelled antibody (antiPY antibody)) added
Read signal on plate reader

Structure (SMILES)	pIC50	IC50 [nM]
CNc1ccc(-c2cc(=O)c3c(O)cc(O)cc3o2)cc1	6.09	813
O=c1c(O)c(-c2cc(O)c(O)c(O)c2)oc2cc(O)cc(O)c12	5.78	1660
